≈ marks a conversion by molar mass, not a printed value.

In assay [1] the test system is Streptococcus pneumoniae. Briefly: Antimicrobial activity against penicillin sensitive Streptococcus pneumoniae isolate 8865 by broth microdilution method. It is filed as functional.
The test system of assay [2] is Streptococcus pneumoniae. Briefly: Antimicrobial activity against penicillin intermediate resistant Streptococcus pneumoniae isolate 8882 harboring PBP2b 443SSNA mutant by broth microdilution method. It is filed as functional.
Assay [3] concerns Streptococcus pneumoniae. Put plainly: Antimicrobial activity against penicillin intermediate resistant Streptococcus pneumoniae isolate 8009 harboring PBP2b 443SSNA mutant by broth microdilution method. It is filed as functional.
In assay [4] the test system is Streptococcus pneumoniae. Briefly: Antimicrobial activity against penicillin resistant Streptococcus pneumoniae isolate 8819 harboring PBP2b 443SSNA mutant by broth microdilution method. Type of assay: functional.
In assay [5] the target is T1, Penicillin-binding protein 2B (Streptococcus pneumoniae serotype 4 (strain ATCC BAA-334 / TIGR4), UniProt P0A3M5).
T1 sequence (P0A3M5 whole entry): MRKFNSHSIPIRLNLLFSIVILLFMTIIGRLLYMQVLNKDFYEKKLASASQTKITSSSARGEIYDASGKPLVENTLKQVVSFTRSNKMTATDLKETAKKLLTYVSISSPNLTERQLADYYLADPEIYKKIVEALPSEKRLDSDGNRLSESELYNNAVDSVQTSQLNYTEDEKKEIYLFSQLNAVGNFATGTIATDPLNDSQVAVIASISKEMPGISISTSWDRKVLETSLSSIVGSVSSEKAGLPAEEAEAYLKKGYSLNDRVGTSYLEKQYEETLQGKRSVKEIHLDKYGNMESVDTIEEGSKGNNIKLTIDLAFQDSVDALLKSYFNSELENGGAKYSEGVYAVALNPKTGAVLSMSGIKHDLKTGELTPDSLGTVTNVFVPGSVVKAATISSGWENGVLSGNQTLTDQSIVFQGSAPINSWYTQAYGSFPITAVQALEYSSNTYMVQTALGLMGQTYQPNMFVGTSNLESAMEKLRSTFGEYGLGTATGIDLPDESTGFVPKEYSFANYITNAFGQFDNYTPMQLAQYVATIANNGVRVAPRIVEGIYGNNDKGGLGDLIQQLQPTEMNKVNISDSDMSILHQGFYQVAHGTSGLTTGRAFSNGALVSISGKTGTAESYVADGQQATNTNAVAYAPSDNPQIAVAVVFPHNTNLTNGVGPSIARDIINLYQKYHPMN
Put plainly: Inhibition of Bocillin FL binding to Streptococcus pneumoniae isolate 8865 PBP2b.

Assay [6] addresses T2, Penicillin-binding protein 2B (Streptococcus pneumoniae (strain ATCC BAA-255 / R6), UniProt P0A3M6, T446A). Briefly: Inhibition of Streptococcus pneumoniae isolate 8882 Bocillin FL binding to PBP2b 443SSNA mutant.
The target of assay [7] is T2, Penicillin-binding protein 2B. Briefly: Inhibition of Bocillin FL binding to PBP2b PBP2b 443SSNA mutant in Streptococcus pneumoniae isolate 8009 harboring E333G, N470K, E476G, T489S, E506D, and N538D mutant genes.
In assay [8] the target is Penicillin-binding protein 2B (Streptococcus pneumoniae (strain ATCC BAA-255 / R6), UniProt P0A3M6, A619G). Put plainly: Inhibition of Bocillin FL binding to PBP2b in Streptococcus pneumoniae isolate 8819 harboring E333G, I361L, E369D, S412P, N422Y, T426K, Q427L, Q438E, L455I, S473T, E476G, S480A, T489A, N538D, D561E, Q564K, and D625G mutant genes.
Assay [9] relates to Streptococcus pneumoniae. Briefly: Antimicrobial activity against laboratory-derived Streptococcus pneumoniae isolate R6 by broth microdilution method. It is filed as functional.
For assay [10], the system named is Streptococcus pneumoniae. Briefly: Antimicrobial activity against laboratory-derived Streptococcus pneumoniae isolate R6 harboring Thr446Ala mutant gene by broth microdilution method. Type of assay: functional.
Assay [11] concerns Streptococcus pneumoniae. Put plainly: Antimicrobial activity against laboratory-derived Streptococcus pneumoniae isolate R6 harboring Thr446Ala/Ala-619-Gly mutant gene by broth microdilution method. Type of assay: functional.
The target in assay [12] is T1, Penicillin-binding protein 2B. Put plainly: Inhibition of Bocillin FL binding to PBP2b in laboratory-derived Streptococcus pneumoniae isolate R6.
Assay [13] deals with T2, Penicillin-binding protein 2B. Briefly: Inhibition of Bocillin FL binding to PBP2b Thr446Ala mutant in laboratory-derived Streptococcus pneumoniae isolate R6.
Assay [14] addresses Penicillin-binding protein 2B (Streptococcus pneumoniae (strain ATCC BAA-255 / R6), UniProt P0A3M6, A619G/T446A). Put plainly: Inhibition of Bocillin FL binding to PBP2b Thr446Ala/Ala-619-Gly mutant in laboratory-derived Streptococcus pneumoniae isolate R6.

T2 sequence (P0A3M6 whole entry T446A): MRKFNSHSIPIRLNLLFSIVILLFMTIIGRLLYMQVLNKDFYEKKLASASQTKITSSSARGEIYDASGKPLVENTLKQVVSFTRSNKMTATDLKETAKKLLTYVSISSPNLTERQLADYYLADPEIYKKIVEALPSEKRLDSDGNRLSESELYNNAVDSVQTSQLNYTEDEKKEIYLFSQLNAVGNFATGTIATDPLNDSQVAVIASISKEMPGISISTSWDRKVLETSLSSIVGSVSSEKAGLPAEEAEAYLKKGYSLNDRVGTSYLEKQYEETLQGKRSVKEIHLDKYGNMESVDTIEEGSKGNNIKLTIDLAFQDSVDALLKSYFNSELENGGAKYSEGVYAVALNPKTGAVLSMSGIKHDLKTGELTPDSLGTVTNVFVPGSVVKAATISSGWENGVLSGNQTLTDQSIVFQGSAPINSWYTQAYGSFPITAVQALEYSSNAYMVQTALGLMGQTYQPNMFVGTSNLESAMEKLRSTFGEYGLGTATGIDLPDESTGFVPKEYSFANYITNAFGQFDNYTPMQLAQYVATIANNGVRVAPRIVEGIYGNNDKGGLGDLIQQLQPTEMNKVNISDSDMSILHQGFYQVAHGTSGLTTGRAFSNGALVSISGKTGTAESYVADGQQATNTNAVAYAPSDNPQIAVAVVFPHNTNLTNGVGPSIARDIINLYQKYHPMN
Chain of Penicillin-binding protein 2B (Streptococcus pneumoniae (strain ATCC BAA-255 / R6), UniProt P0A3M6, A619G) (P0A3M6 whole entry A619G): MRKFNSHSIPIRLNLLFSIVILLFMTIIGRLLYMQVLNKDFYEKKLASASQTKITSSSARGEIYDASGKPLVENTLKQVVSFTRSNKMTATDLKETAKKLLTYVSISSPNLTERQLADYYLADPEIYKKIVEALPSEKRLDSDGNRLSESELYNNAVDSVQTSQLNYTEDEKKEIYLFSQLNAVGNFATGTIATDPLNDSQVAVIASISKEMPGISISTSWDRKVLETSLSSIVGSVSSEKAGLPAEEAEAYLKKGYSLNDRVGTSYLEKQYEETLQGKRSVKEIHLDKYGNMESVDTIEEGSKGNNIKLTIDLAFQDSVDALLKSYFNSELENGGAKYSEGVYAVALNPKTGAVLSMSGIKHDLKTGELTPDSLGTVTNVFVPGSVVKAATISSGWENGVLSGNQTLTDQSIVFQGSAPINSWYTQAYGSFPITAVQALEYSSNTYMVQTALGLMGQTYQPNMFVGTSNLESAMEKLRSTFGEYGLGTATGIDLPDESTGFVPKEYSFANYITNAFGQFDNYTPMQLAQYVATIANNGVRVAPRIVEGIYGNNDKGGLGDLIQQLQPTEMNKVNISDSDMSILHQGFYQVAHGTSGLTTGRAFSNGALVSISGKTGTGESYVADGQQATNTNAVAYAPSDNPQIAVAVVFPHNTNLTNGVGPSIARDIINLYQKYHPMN
Chain of Penicillin-binding protein 2B (Streptococcus pneumoniae (strain ATCC BAA-255 / R6), UniProt P0A3M6, A619G/T446A) (P0A3M6 whole entry T446A/A619G): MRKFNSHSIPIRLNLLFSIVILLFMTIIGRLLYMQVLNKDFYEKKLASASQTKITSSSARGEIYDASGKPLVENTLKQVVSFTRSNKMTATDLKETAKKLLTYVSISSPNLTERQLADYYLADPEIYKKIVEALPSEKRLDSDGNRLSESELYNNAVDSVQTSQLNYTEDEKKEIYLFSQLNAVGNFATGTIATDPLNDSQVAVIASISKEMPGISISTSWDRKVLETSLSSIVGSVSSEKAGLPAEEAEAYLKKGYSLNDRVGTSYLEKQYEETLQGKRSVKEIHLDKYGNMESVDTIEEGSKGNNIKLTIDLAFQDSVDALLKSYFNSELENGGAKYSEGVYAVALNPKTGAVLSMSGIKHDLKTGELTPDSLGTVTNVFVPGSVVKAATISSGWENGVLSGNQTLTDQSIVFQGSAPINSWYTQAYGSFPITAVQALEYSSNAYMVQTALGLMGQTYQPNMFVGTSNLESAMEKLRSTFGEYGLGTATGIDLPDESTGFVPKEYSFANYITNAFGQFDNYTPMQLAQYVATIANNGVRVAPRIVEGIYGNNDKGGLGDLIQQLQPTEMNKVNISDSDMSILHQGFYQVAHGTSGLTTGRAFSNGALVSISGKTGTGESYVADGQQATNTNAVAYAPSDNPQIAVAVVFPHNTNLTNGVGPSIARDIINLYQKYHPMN

On to `CO/N=C(\C(=O)N[C@@H]1C(=O)N2C(C(=O)O)=C(CSc3nc(=O)c(O)nn3C)CS[C@H]12)c1csc(N)n1` [CEFTRIAXONE], for which the MIC against Streptococcus pneumoniae [1] amounted to 0.03 µg/mL (≈ 0.0541 µM); in the assay with Streptococcus pneumoniae [2] it was 0.06 µg/mL (≈ 0.108 µM); with Streptococcus pneumoniae [3] it was 0.06 µg/mL (≈ 0.108 µM); against Streptococcus pneumoniae [4], 8 µg/mL (≈ 14.4 µM); in the assay on Streptococcus pneumoniae [9] it was 0.008 µg/mL (≈ 0.0144 µM); against Streptococcus pneumoniae [10] it was 0.008 µg/mL (≈ 0.0144 µM). In the assay with Streptococcus pneumoniae [11], this compound came in with a minimum inhibitory concentration (MIC) of 0.015 µg/mL (≈ 0.027 µM). Moreover, the IC50 in assay [5], in assay [6], in assay [7], in assay [8] and in assay [12] was above 14400 nM each time.
With `CC1(C)S[C@@H]2[C@H](NC(=O)Cc3ccccc3)C(=O)N2[C@H]1C(=O)O` [PENICILLIN G], the minimum inhibitory concentration (MIC) with Streptococcus pneumoniae [1] is at most 0.015 µg/mL; with Streptococcus pneumoniae [2] it was 0.12 µg/mL (≈ 0.359 µM); against Streptococcus pneumoniae [3], 0.12 µg/mL (≈ 0.359 µM); in the assay with Streptococcus pneumoniae [4], 8 µg/mL (≈ 23.9 µM); against Streptococcus pneumoniae [9], 0.015 µg/mL (≈ 0.0449 µM); with Streptococcus pneumoniae [10] it was 0.015 µg/mL (≈ 0.0449 µM). In the assay on Streptococcus pneumoniae [11], the MIC was found to be 0.03 µg/mL (≈ 0.0897 µM). In addition, the IC50 in assay [5] was 23.9 nM; in assay [6], 7480 nM; in assay [7], 7480 nM; in [8], above 23900 nM; in assay [12], 449 nM; in assay [13], 2390 nM. The compound also had an IC50 in assay [14] of 5380 nM.
`Nc1nc(/C(=N/O)C(=O)N[C@@H]2C(=O)N3C(C(=O)O)=C(/C=C4\CCN([C@@H]5CCNC5)C4=O)CS[C@H]23)ns1` [CEFTOBIPROLE]: the MIC against Streptococcus pneumoniae [1] came to 0.008 µg/mL (≈ 0.015 µM); with Streptococcus pneumoniae [2], 0.008 µg/mL (≈ 0.015 µM); with Streptococcus pneumoniae [3], 0.015 µg/mL (≈ 0.0281 µM); in the assay on Streptococcus pneumoniae [4] it was 1 µg/mL (≈ 1.87 µM); in the assay with Streptococcus pneumoniae [9], 0.002 µg/mL (≈ 0.00374 µM); against Streptococcus pneumoniae [10], 0.002 µg/mL (≈ 0.00374 µM). This compound also showed an MIC against Streptococcus pneumoniae [11] of 0.004 µg/mL (≈ 0.00748 µM). Also, the IC50 in assay [5] was 112 nM; in [6], 2240 nM; in assay [7] it was 1680 nM; in assay [8], above 15000 nM; in [12], 112 nM; in [13] it was 1310 nM. Also, the IC50 in assay [14] was 3180 nM.

(Values after ChEMBL document CHEMBL1671743, “Affinity of ceftobiprole for penicillin-binding protein 2b in Streptococcus pneumoniae strains with various susceptibilities to penicillin” (Antimicrob Agents Chemother, 2010).)
